Laboratory results as given in publication PMC6291243 (The Journal of organic chemistry, 2018).

Assays:
LipM = biological target: T1, LipM (Streptomyces sp. SANK 60405, UniProt D4QF26); assay: HPLC of UDP-sugar, coupled with phosphorylase; type: biochemical; settings: generated in situ from 13b; UTP
T1 sequence (D4QF26 1-233): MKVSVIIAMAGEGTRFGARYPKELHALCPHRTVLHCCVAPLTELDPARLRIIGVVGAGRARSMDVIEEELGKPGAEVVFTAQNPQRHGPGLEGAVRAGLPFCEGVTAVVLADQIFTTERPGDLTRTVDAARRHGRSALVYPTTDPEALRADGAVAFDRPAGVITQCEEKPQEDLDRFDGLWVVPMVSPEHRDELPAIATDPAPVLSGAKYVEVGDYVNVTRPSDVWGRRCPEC

Mur20 = Mur20 (Streptomyces sp. NRRL 30471, UniProt F2WUD2); assay: HPLC, specific activity; type: biochemical; settings: amine donor; 1 mM 11a, 50 mM potassium phosphate pH 7.5, 30 °C

For `NC[C@H]1O[C@H](OP(=O)(O)O)C[C@@H]1O` [5-amino-2,5-dideoxy-α-D-ribose-1-phosphate], the “HPLC of UDP-sugar, coupled with phosphorylase” value (LipM) was “either enzyme was substituted with the respective orthologous proteins LipP or LipM”.

With `N[C@@H](Cc1ccc(O)cc1)C(=O)O` [L-Tyr] the “HPLC, specific activity” value (Mur20) was “the specific activity for Mur20 was highest using L-Tyr as an amine donor”.
